The target of one assay is T1, human Slo3 (Homo sapiens, UniProt A8MYU2).
T1 construct: expressed in transfected cells; host or cells: CHO cells, transient co-transfection with pcDNA3.1(+) vectors
T1 sequence (A8MYU2 1-1149): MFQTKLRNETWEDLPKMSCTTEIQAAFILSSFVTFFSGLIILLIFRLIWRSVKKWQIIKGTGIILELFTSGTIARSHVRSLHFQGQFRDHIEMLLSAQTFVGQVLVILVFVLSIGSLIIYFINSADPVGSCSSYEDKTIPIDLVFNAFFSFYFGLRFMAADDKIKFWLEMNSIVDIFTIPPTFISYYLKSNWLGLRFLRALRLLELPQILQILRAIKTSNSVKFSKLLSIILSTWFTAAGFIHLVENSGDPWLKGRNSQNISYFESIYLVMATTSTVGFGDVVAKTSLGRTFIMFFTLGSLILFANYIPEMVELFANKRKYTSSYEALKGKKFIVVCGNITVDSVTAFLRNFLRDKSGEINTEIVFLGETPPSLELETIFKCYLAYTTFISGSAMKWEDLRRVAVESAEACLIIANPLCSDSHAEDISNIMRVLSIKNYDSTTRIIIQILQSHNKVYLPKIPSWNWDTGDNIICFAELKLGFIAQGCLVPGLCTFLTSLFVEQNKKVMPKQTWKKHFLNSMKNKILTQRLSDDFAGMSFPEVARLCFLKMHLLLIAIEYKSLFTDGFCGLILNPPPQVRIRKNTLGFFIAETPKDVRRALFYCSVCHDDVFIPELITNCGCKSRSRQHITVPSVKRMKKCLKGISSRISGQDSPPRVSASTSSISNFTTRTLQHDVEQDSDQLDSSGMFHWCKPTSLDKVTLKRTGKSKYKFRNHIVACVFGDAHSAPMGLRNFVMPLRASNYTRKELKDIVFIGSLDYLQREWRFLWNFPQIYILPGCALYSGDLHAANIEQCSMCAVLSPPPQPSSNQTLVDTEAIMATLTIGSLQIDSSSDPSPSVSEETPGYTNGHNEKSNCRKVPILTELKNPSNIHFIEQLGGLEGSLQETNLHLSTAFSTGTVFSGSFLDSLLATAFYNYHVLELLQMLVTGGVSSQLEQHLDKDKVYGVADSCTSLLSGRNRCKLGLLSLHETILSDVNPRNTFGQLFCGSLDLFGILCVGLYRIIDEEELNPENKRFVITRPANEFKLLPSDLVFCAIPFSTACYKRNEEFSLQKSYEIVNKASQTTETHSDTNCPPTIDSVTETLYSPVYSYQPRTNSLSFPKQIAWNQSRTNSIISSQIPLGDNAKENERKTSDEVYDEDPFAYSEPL
T1 sequence (Q8N7C0 24-313 partner): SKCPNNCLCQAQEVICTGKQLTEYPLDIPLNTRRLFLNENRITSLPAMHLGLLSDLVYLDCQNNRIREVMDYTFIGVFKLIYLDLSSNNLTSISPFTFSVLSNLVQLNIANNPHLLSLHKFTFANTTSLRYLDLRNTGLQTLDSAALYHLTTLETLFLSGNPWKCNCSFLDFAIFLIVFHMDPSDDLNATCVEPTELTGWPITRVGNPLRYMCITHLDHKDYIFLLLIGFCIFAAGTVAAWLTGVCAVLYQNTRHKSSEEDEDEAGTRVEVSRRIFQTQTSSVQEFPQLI
Put plainly: Whole-cell patch-clamp of Slo3 currents in CHO cells co-expressing human Slo3 and LRRC52. It is filed as cell-based.

A further assay deals with CatSper. Conditions: relative to progesterone; cited from earlier work.
[1] abbreviates: dose-response, Hill fit, mean ± SD, read-out: IC50 for inhibition of Slo3.
Setting [2] is: 50 µM prostaglandin, n = 3, in range of current rundown.

Results on 16 molecules are retold here after article PMC11413451 (Frontiers in Cell and Developmental Biology, 2024).

SMILES strings stand for the structures. Like-named read-outs stand apart in the source and are kept apart here. Some results are limits rather than exact numbers.

As for `CC(=O)[C@H]1CC[C@H]2[C@@H]3CCC4=CC(=O)CC[C@]4(C)[C@H]3CC[C@]12C` [progesterone], the “decrease of Slo3 current amplitude” value at human Slo3 (50 μM steroid, +100 mV, n ≥ 3) is “significantly decreased”. Also, the IC50 on human Slo3 (setting [1]) was determined as 5.2 ± 2.9 µM.

For the molecule `CC(=O)[C@@]1(O)CC[C@H]2[C@@H]3CC=C4C[C@@H](O)CC[C@]4(C)[C@H]3CC[C@@]21C` [17α-hydroxypregnenolone], the “decrease of Slo3 current amplitude” value on human Slo3 (50 μM steroid, +100 mV, n ≥ 3) is reported as ≤ 18%.

As for `C[C@]12CC[C@H]3[C@@H](CCC4=CC(=O)CC[C@@]43C)[C@@H]1CC[C@@H]2O` [testosterone], at human Slo3, the midpoint of inhibition, the IC50, lay at 17 ± 14 µM. For the same molecule, the “decrease of Slo3 current amplitude” value on human Slo3 (50 μM steroid, +100 mV, n ≥ 3) is “significantly decreased”.

In the case of `C[C@]12CC[C@@H]3c4ccc(O)cc4CC[C@H]3[C@@H]1CCC2=O` [estrone], the “decrease of Slo3 current amplitude” value at human Slo3 (50 μM steroid, +100 mV, n ≥ 3) is ≤ 18%.

Consider `CC(=O)C1(O)CCC2C3CCC4=CC(=O)CCC4(C)C3CCC21C` (stereo not drawn) [17α-hydroxyprogesterone], for which the “decrease of Slo3 current amplitude” value on human Slo3 (50 μM steroid, +100 mV, n ≥ 3) is “significantly decreased”. Moreover, the IC50 at human Slo3 (setting [1]) turned out to be 27 ± 10 µM.

Molecule `C[C@]12CC[C@@H]3c4ccc(O)cc4CC[C@H]3[C@@H]1CC[C@@H]2O` [estradiol] returned a half-maximal inhibitory concentration (IC50) against human Slo3 of 8.9 ± 4.4 µM. At human Slo3 (50 μM steroid, +100 mV, n ≥ 3), the “decrease of Slo3 current amplitude” value is “significantly decreased”. In the assay on CatSper, the “fold less potent than progesterone to activate CatSper” value was “around 100 fold”.

For the molecule `C[C@]12CCC(=O)C=C1CC[C@@H]1[C@@H]2C(=O)C[C@@]2(C)[C@H]1CC[C@]2(O)C(=O)CO` [cortisone], on human Slo3 (50 μM steroid, +100 mV, n ≥ 3), the “decrease of Slo3 current amplitude” value is listed as ≤ 18%.

As to `C[C@]12C[C@H](O)[C@H]3[C@@H](CCC4=CC(=O)CC[C@@]43C)[C@@H]1CC[C@@H]2C(=O)CO` [corticosterone], the “decrease of Slo3 current amplitude” value at human Slo3 (50 μM steroid, +100 mV, n ≥ 3) is “significantly decreased”. In addition, the IC50 on human Slo3 (setting [1]) was 58 ± 11 µM.

On human Slo3, `C[C@]12CC[C@H](O)CC1=CC[C@@H]1[C@@H]2CC[C@]2(C)C(=O)CC[C@@H]12` [DHEA, dehydroepiandrosterone] had an IC50 of 41 ± 4 µM. In addition, the “decrease of Slo3 current amplitude” value on human Slo3 (50 μM steroid, +100 mV, n ≥ 3) is given as “significantly decreased”.

Consider `CCCCC/C=C\C/C=C\C/C=C\C/C=C\CCCC(=O)O` [arachidonic acid], for which the “effect on Slo3 currents” value at human Slo3 (3 µM arachidonic acid, n = 7) is recorded as “did not affect”.

`C[C@]12CC[C@H]3[C@@H](CC=C4C[C@@H](O)CC[C@@]43C)[C@@H]1CC[C@@H]2O` [androstenediol]: the “decrease of Slo3 current amplitude” value on human Slo3 (50 μM steroid, +100 mV, n ≥ 3) is ≤ 18%.

For `C[C@]12CCC(=O)C=C1CC[C@@H]1[C@@H]2CC[C@]2(C)C(=O)CC[C@@H]12` [androstenedione], at human Slo3 (50 μM steroid, +100 mV, n ≥ 3), the “decrease of Slo3 current amplitude” value was ≤ 18%.

Take `CCCCC[C@H](O)/C=C/[C@H]1[C@H](O)CC(=O)[C@@H]1CCCCCCC(=O)O` [PGE1, prostagladin E1]: the “decrease of Slo3 current amplitude” value at human Slo3 (setting [2]) came to 18 ± 7%.

`CC(=O)[C@H]1CC[C@H]2[C@@H]3CC=C4C[C@@H](O)CC[C@]4(C)[C@H]3CC[C@]12C` [pregnenolone]: the “decrease of Slo3 current amplitude” value at human Slo3 (50 μM steroid, +100 mV, n ≥ 3) is ≤ 18%.

Regarding `CCCCC[C@H](O)/C=C/[C@H]1[C@H](O)CC(=O)[C@@H]1C/C=C\CCCC(=O)O` [PGE2, prostaglandin E2], the “decrease of Slo3 current amplitude” value on human Slo3 (setting [2]) amounted to 7 ± 7%.

For `[Zn+2]` [Zn^2+], the “decrease of Slo3 current amplitude” value at human Slo3 (1 mM Zn^2+, n = 4, in range of current rundown) was 14 ± 13%.
